The source of these data is patent US11173127B2, “Potato protein nanoparticles” (priority 2013, dated 2021).

Entries after “also recorded” stand apart in the source; their conditions may differ.

What all share (format): physicochemical
Data set [1] is described as follows: VD retention at pH 2.5 and 25° C. (RP-HPLC). To be noted: pH 2.5, 25° C., with 1.5 mg/ml potato protein vs without; VD 0.1 mg/ml. How it is done:
The percentage of VD retention within the composition at pH 2.5, and 25° C. was also assessed, in the presence and absence of 1.5 mg/ml potato protein. VD concentration at time zero was 0.1 mg/ml. […] The measurements were done using RP-HPLC.

Data set [2] can be described thus: Simulated shelf life test at 23° C. and pH 2.5, exposed to light. Particulars: pH 2.5, light. How it is done: PP-VD3 nanoparticles and VD3 suspensions were prepared in glass test tubes at pH 2.5, pasteurized for 1 min at 88° C. in open test tubes, and then capped, cooled and maintained at room temperature (23° C.) exposed to light, and followed with time. Samples for all shelf life tests were prepared without any preservative.
Samples of 1 ml containing 100 μg/ml VD3 in buffer and 1 mg/ml PP were prepared. The samples were individually prepared in order to perform total volume extractions, minimizing transfer/precipitation losses. Three tubes of each type were quantified immediately, to serve as control. All the remaining tubes were then pasteurized. Three tubes of each type were quantified immediately, to serve as reference. The other tubes were stored at the conditions described above. At each time point, three tubes of each type were taken from storage and their VD3 content was quantified. In all experiments, the tubes were stored covered with their lids to prevent evaporation.
Further tests that show the great advantage of the present invention in conferring exceptional stability to active ingredient is provided in FIG. 8. […] Thus, the shelf life test examined the VD3 stability at low pH (2.5) and exposure to light, during time.

A short description of data set [3]: VD retention during pasteurization at 72° C. and pH 2.5 (RP-HPLC). Particulars: pH 2.5, at least 60 seconds, with 1.5 mg/ml potato protein vs without, VD 0.1 mg/ml. The procedure:
The percentage of VD retention within the composition was assessed during pasteurization at 72° C. and pH 2.5 for up to 60 seconds, in the presence and absence of 1.5 mg/ml potato protein. VD concentration at time zero was 0.1 mg/ml. The measurements were done using RP-HPLC. The samples were kept in the dark and the vials' head spaces were filled with argon to prevent oxidation until the analysis.

The nature of data set [4]: Effect of potato protein on solubilization and transparency (visual). To be noted: for appearance / turbidity of solution: 25 mM phosphate buffer pH 2.5, without potato protein. The procedure: First, the effect of potato protein on solubilization and transparency of vitamin D (VD) was assessed. Two aqueous buffer solutions (25 mM phosphate buffer, pH 2.5) containing the same concentration of VD (0.1 mg/ml) were used. Only one vial (left vial of FIG. 1a) also included 1.5 mg/ml potato protein. It is clearly seen that due to the presence of the potato protein, the solution containing VD is transparent, while the one devoid of potato protein is turbid.
Second, the effect of potato protein on solubilization and transparency of omega 3 was also assessed. Specifically, two aqueous buffer solutions (25 mM phosphate buffer, pH 2.5) contained the same concentration of 0.5 ul/ml omega 3 (ethyl ester DHA) colored with Nile red, which is only pink in a hydrophobic environment. One vial (left vial of FIG. 1b) also contained 1.5 mg/ml potato protein.
Thus, the potato protein nanoparticle solubilized the hydrophobic ingredient in a uniform, transparent, manner.

Data set [5] is described as follows: Dynamic light scattering particle size distribution. Particulars: VD without potato protein, 10-50 ug/ml VD, phosphate buffer 25 mM pH 2.5, bimodal distribution. How it is done:
Dynamic light scattering (DLS) was used to evaluate size distribution of the potato protein-VD complexes.
The particle size of VD without potato protein was measured with different concentration of VD—10, 25, 35 and 50 ug/ml VD in a phosphate buffer (25 mM, pH 2.5). In all concentrations a bimodal distribution was obtained, with diameter larger than 1500 nm.
The size distributions of the VD—potato protein nano-particles were also measured at several concentrations of VD—10, 25, 35 and 50 μg/ml VD. The size distributions (FIG. 3) consisted of two fractions. The first fraction (84% by volume) comprised the small nano-particles of about 15 nm diameter, while the second fraction comprised nano-particles whose average diameter was around 80 nm.

The nature of data set [6]: VD3 degradation under industrial pasteurization and hot-bottling conditions (88° C., 1 min). Particulars: cooled 30 min to 30-35° C., pH 2.5, 100 μg/ml VD3, PP 1 mg/ml where present. How it is done: VD3 in phosphate buffer, and PP-VD3 nanoparticles were prepared at 1 mg/ml potato protein (PP) and 100 μg/ml VD3 at pH 2.5.
Samples (without a cap) were heated in a water bath for 1 min at 88° C. Following heat treatment, samples were capped and maintained at room temperature for 30 minutes until their temperature decreased to 30-35° C. Controls of VD3, PP and PP-VD3 nanoparticles, at pH 2.5, were extracted immediately without any heat treatment. The other samples were extracted at room temp after the above heat treatment.
VD3 was extracted and quantified using a protocol based on Haham, et al. (Haham, M., et al., Stability and bioavailability of vitamin D nanoencapsulated in casein micelles. Food & Function, 2012). The protocol, used on both aqueous solutions (with and without PP), was as follows: 1 ml of VD3-containing sample was put into a glass test tube. 3 ml of a 2:1 chloroform:methanol mixture was then added, and the tubes were vortexed for ˜20 seconds. […]
Following extraction, 1.5 ml of RP-HPLC mobile phase (methanol:acetonitrile:water 49.5:49.5:1, by volume) were added to the drying vial, given 15 minutes to equilibrate after vortexing, and then transferred to a 1.5 ml glass HPLC vial. […] In the mobile phase, VD3 has a local UV absorption maximum at 267 nm, and so the 267 nm chromatogram was used for VD3 quantification.

On to `C=C1CC[C@H](O)C/C1=C/C=C1\CCC[C@]2(C)[C@@H]([C@H](C)CCCC(C)C)CC[C@@H]12` [VD, Vitamin D3], for which the “protection of VD (VD retention)” value in data set [1] is “significant protection”. Moreover, the “VD degraded / lost” value in data set [2] (after one week) was “almost all”. In addition, the “post-pasteurization VD3 lost” value in data set [2] (within 24 hours) is recorded as 52%. Besides, the “protection against heat induced degradation (VD retention)” value in data set [3] is on record as “significant protection”. Further, the “appearance / transparency of solution” value in data set [4] (25 mM phosphate buffer pH 2.5, with 1.5 mg/ml potato protein) is “transparent”. Moreover, the “appearance / turbidity of solution” value in data set [4] was “turbid; also recorded: much more turbid”. For the same compound, the “particle diameter (DLS)” value in data set [5] was > 1500 nm. The “VD degraded / lost by heat treatment” value in data set [6] is 55%.

As for `CC/C=C\C/C=C\C/C=C\C/C=C\C/C=C\C/C=C\CCC(=O)OCC` [omega 3, omega 3 DHA (ethyl ester)], the “appearance / turbidity of solution” value in data set [4] was “much more turbid”.
